Measured values as given in patent US6906205B2, “Spiro and dispiro 1,2,4-trioxolane antimalarials” (Medicines for Malaria Venture MMV, priority 2002, dated 2005).
Values after ≈ are worked out from the molar mass of the structure shown.

Assays:
[1] = system: ANKA strain of P. berghei; assay: single dose STI in vivo screen in infected mice; set-up: species or system Plasmodium berghei; settings: for Activity (%) po / Activity (%) sc / Activity (%) SSVpo: percent reduction in parasitemia day 3 post-infection, mice; for Activity (%) po / Survival (days) po: single 10 mg/kg po in 3% ethanol and 7% Tween 80; for Activity (%) sc / Survival (days) sc: single 10 mg/kg sc in 3% ethanol and 7% Tween 80; for Activity (%) SSVpo: single po dose in standard suspending vehicle (SSV); for Survival (days) po / Survival (days) sc / Survival (days) SSVpo: untreated control 5.6 ± 0.3; for Survival (days) SSVpo: single po dose in SSV
Outline: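 Groups of 3-5 Moro SPF or NMRI mice infected with the ANKA strain of P. berghei received a single dose of trioxolane on day one post-infection. The compound was given in 3% ethanol and 7% Tween 80 or in SSV (0.5% w/v CMC, 0.5% v/v benzyl alcohol, 0.4% v/v Tween 80, 0.9% w/v sodium chloride in water). Antimalarial activity was scored as percent reduction in parasitemia on day three and as survival time versus untreated controls. Survival to day 30 counted as cure.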

[2] = system: P. falciparum K1 strain (Thailand resistant to chloroquine); assay: semiautomated microdilution assay, [3H]-hypoxanthine incorporation, K1 strain; type: cell-based, Plasmodium falciparum; settings: K1 strain, 72 h incubation
Outline: (§1)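 IC50 values come from logit regression of semiautomated microdilution data obtained on intraerythrocytic parasites drawn from asynchronous cultures.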

[3] = system: P. falciparum NF54 strain (sensitive to standard antimalarials); assay: semiautomated microdilution assay, [3H]-hypoxanthine incorporation, NF54 strain; type: cell-based, Plasmodium falciparum; settings: NF54 strain, 72 h incubation
Outline: as §1

Compound	Activity (%) po [1]	Activity (%) sc [1]	Activity (%) SSVpo [1]	Survival (days) po [1]	Survival (days) sc [1]	Survival (days) SSVpo [1]	IC50 (ng/ml) K1 [2]	IC50 (ng/ml) NF54 [3]
O=C(CN1C(=O)c2ccccc2C1=O)N1CCC2(CC1)OOC1(O2)C2CC3CC(C2)CC1C3 (stereo not drawn) [OZ93]	57%	100%	3%	6.7 days	13.3 days	6.0 days	3.3 ng/mL (≈ 7.29 nM)	0.92 ng/mL (≈ 2.03 nM)
c1ccc2c(c1)-c1ccccc1C21OOC2(O1)C1CC3CC(C1)CC2C3 (stereo not drawn) [OZ94]	21%	11%	0%	6.0 days	5.3 days	5.7 days	57 ng/mL (≈ 165 nM)	28 ng/mL (≈ 80.8 nM)
O=[N+]([O-])c1ccc(C2(c3ccccc3)OOC3(O2)C2CC4CC(C2)CC3C4)cc1 (stereo not drawn) [OZ95]	31%	49%	0%	6.0/6.0/6.0 days	6.0/6.0/6.0 days	6.0/6.0/6.0 days	2.8 ng/mL (≈ 7.12 nM)	1.3 ng/mL (≈ 3.3 nM)
O=[N+]([O-])c1cc(C2(c3ccc(Cl)c([N+](=O)[O-])c3)OOC3(O2)C2CC4CC(C2)CC3C4)ccc1Cl (stereo not drawn) [OZ96]	12%	19%	14%	5.7 days	5.3 days	5.7 days	8.4 ng/mL (≈ 16.6 nM)	> 10 ng/mL
O=C1c2ccccc2C(=O)N1CC1(c2ccccc2)CCC2(CC1)OOC1(O2)C2CC3CC(C2)CC1C3 (stereo not drawn) [OZ97]	59%	66%	2%	6.7 days	7.0 days	5.3 days	2.2 ng/mL (≈ 4.4 nM)	1.8 ng/mL (≈ 3.6 nM)
COC(=O)C1(c2ccccc2)CCC2(CC1)OOC1(O2)C2CC3CC(C2)CC1C3 (stereo not drawn) [OZ98]	72%	77%	11%	6.3 days	7.3 days	5.3 days	2.3 ng/mL (≈ 5.77 nM)	0.9 ng/mL (≈ 2.26 nM)
O=C(O)C1(c2ccccc2)CCC2(CC1)OOC1(O2)C2CC3CC(C2)CC1C3 (stereo not drawn) [OZ99]	30%	36%	40%	6.3 days	6.3 days	5.7 days	77 ng/mL (≈ 200 nM)	27 ng/mL (≈ 70.2 nM)
CC(=O)Nc1ccc(S(=O)(=O)N2CCC3(CC2)OOC2(O3)C3CC4CC(C3)CC2C4)cc1 (stereo not drawn) [OZ104]	56%	99.98%	0%	6.3 days	12.0 days	5.7 days	1.4 ng/mL (≈ 3.03 nM)	0.50 ng/mL (≈ 1.08 nM)
COC(=O)c1ccc(C2(c3ccc(C(=O)OC)c(C(=O)OC)c3)OOC3(O2)C2CC4CC(C2)CC3C4)cc1C(=O)OC (stereo not drawn) [OZ106]	0/0/0%	0/0/0%	0/0/0%	5.3 days	5.3 days	5.0 days	2.2 ng/mL (≈ 3.79 nM)	1.7 ng/mL (≈ 2.93 nM)
O=C(O)c1nccnc1C(=O)N1CCC2(CC1)OOC1(O2)C2CC3CC(C2)CC1C3 (stereo not drawn) [OZ109]	2%	24%	0%	5.7 days	6.3 days	5.7 days	21 ng/mL (≈ 50.5 nM)	24 ng/mL (≈ 57.8 nM)
CCOC(=O)N1C2CCC1CC1(C2)OOC2(O1)C1CC3CC(C1)CC2C3 (stereo not drawn) [OZ110]	50%	97.97%	0%	6.7 days	7.7 days	5.3 days	5.3 ng/mL (≈ 14.6 nM)	2.1 ng/mL (≈ 5.78 nM)
O=C(O)COCC(=O)N1CCC2(CC1)OOC1(O2)C2CC3CC(C2)CC1C3 (stereo not drawn) [OZ112]	6%	36%	0%	5.7 days	6.3 days	5.7 days	>10/>10 ng/ml	>10/>10 ng/ml
O=S(=O)(c1cccc2cccnc12)N1CCC2(CC1)OOC1(O2)C2CC3CC(C2)CC1C3 (stereo not drawn) [OZ114]	0%	99.64%	0%	5.7 days	8.7 days	6.0 days	3.7 ng/mL (≈ 8.1 nM)	2.2 ng/mL (≈ 4.82 nM)
CCCCCCCCS(=O)(=O)N1CCC2(CC1)OOC1(O2)C2CC3CC(C2)CC1C3 (stereo not drawn) [OZ115]	33%	97%	0%	6.3 days	7.3 days	5.7 days	11 ng/mL (≈ 24.9 nM)	6.9 ng/mL (≈ 15.6 nM)
O=C(NO)[C@H]1CC[C@]2(CC1)OOC1(O2)C2CC3CC(C2)CC1C3 (stereo partly drawn) [OZ116]	97%	96%	96%	7.7 days	8.0 days	8.3 days	4.2 ng/mL (≈ 13 nM)	3.3 ng/mL (≈ 10.2 nM)
NCC1(c2ccccc2)CCC2(CC1)OOC1(O2)C2CC3CC(C2)CC1C3 (stereo not drawn) [OZ117]	95%	99.94%	96%	7.0 days	8.7 days	7.7 days	2.1 ng/mL (≈ 5.68 nM)	1.2 ng/mL (≈ 3.25 nM)
CC(=O)OC[C@H]1CC[C@]2(CC1)OOC1(O2)C2CC3CC(C2)CC1C3 (stereo partly drawn) [OZ118]	99.0%	99.57%	98%	7.0 days	8.3 days	8.0 days	1.0 ng/mL (≈ 2.97 nM)	0.24 ng/mL (≈ 0.713 nM)
CCOC(=O)C1(C(=O)OCC)COC2(CCC3(CC2)OOC2(O3)C3CC4CC(C3)CC2C4)OC1 (stereo not drawn) [OZ120]	33%	96%	8%	6.0 days	8.0 days	5.7 days	1.2 ng/mL (≈ 2.5 nM)	0.59 ng/mL (≈ 1.23 nM)
OCC1(CO)COC2(CCC3(CC2)OOC2(O3)C3CC4CC(C3)CC2C4)OC1 (stereo not drawn) [OZ121]	91%	99.61%	98%	7.3 days	7.3 days	8.0 days	0.96 ng/mL (≈ 2.42 nM)	0.41 ng/mL (≈ 1.03 nM)
O=C(O)C1(C(=O)O)COC2(CCC3(CC2)OOC2(O3)C3CC4CC(C3)CC2C4)OC1 (stereo not drawn) [OZ122]	10%	0%	3%	5.7 days	5.0 days	5.3 days	>100/>100 ng/ml	>100/>100 ng/ml
BrC[C@H]1CC[C@]2(CC1)OOC1(O2)C2CC3CC(C2)CC1C3 (stereo partly drawn) [OZ123]	99.66%	99.96%	94%	8.0 days	16 days	7.0 days	1.6 ng/mL (≈ 4.48 nM)	1.9 ng/mL (≈ 5.32 nM)
N#Cc1ccc(C2(c3ccccc3)OOC3(O2)C2CC4CC(C2)CC3C4)cc1 (stereo not drawn) [OZ124]	72%	86%	17%	6.3 days	7.0 days	5.3 days	2.1 ng/mL (≈ 5.62 nM)	1.7 ng/mL (≈ 4.55 nM)
CCOC(=O)c1ccc(C2(c3ccc(C(=O)OCC)cc3)OOC3(O2)C2CC4CC(C2)CC3C4)cc1 (stereo not drawn) [OZ125]	8%	0%	0%	5.3 days	6.0 days	5.7 days	68 ng/mL (≈ 138 nM)	> 100 ng/mL
C=C1COC2(CCC3(CC2)OOC2(O3)C3CC4CC(C3)CC2C4)OC1 (stereo not drawn) [OZ128]	99.93%	99.98%	99.95%	8.3 days	11.7 days	8.7 days	0.59 ng/mL (≈ 1.69 nM)	1.1 ng/mL (≈ 3.16 nM)
